Read-outs that look alike come from different tables or passages of the source.

Data set [1] concerns Staphylococcus aureus (S. aureus) ATCC 43300. As to the kind of experiment: MIC macrodilution (NCCLS) serial dilution. The arrangement: key to growth in MIC tube: “+” denotes visually detectable growth in MIC tube.; “NG” denotes “no growth” in MIC tube. The class given is cell-based. Particulars: for MIC: antibiotics. On the procedure:
(§1) Cell suspension concentration was calculated by measuring the optical density (A610) between 0.6 and 0.9.
(§2) To study efficacy, the challenge was done by determining minimum inhibitory concentration or MIC by employing serial dilutions. The minimum inhibitory concentration or MIC is defined as the minimum concentration of antibiotic that will inhibit the growth of the isolated microorganism. In its normal mode of operation, a bacterial inoculum is inoculated into tubes containing culture media and varying concentrations of the antibiotic to be tested. The tubes are incubated to allow bacterial growth. The MIC is read as the lowest concentration of biocide that inhibited bacterial growth. The interpretation of this MIC depends on the organism/biocide pair being tested, and is made following standard guidelines. MIC testing of the present compositions was conducted via a macrodilution procedure using NCCLS (National Committee for Clinical Laboratory Standards) methods for antibiotic susceptibility testing. The biological experiments were conducted by serial dilution with Muller Hinton media of ten tubes where the bacterial concentration was 10 million cells/ml in each. In addition to the “as is” samples (i.e. 100%), ten 1:1 serial dilutions of each sample were tested to determine the MIC for each sample-inoculum combination. The equivalent percentages of the dilutions are: 100, 50, 25, 12.5, 6.25, 3.125, 1.562, 0.781, 0.391, and 0.195%. These tubes were then incubated at 37±2° C. for approximately 24 hours without agitation. The tubes were then observed for presence and level of visible growth.

The test system of data set [2] is Escherichia coli (E. coli) strain procured from a patient. As to the kind of experiment: MIC macrodilution (NCCLS) serial dilution. The class given is cell-based. Particulars: for MIC: antibiotics. Also on record: key to growth in MIC tube: “+” denotes visually detectable growth in MIC tube.; “NG” denotes “no growth” in MIC tube; key to MIC: “NE” denotes not effective. On the procedure:
as §1, §2

The test system of the next data set is MCF-7. Particulars: for % Inhibition: 72 hrs. On the procedure:
(§3) Cells are plated in a 96 well flat bottom tissue culture plates at 10,000 cells/well. Dilutions and controls are added to wells as follows:
(§4) Vero Cells were grown and tested in complete Dulbeco's Modified Eagles Medium (DMEM) supplemented with 15% Fetal Bovine Serum (FBS), Gentamicine 40 μg/ml, Hepes buffer at pH=7.2, L-Glutamine 2 mM and Sodium pyruvate. MCF-7 were grown and tested in complete RPMI-1640 medium supplemented with 10% FBS Gentamicine 40 μg/ml, Hepes buffer at pH=7.2, L-Glutamine 2 mM and Sodium pyruvate. Plates were incubated in CO2 in a humidified incubator at 37° C. for 72 hrs, and then each well was harvested and counted by Trypan Blue dye exclusion method. Numbers of viable cells were counted on a hemacytometer and adjusted for concentration of cells/ml. For comparative purposes, experiments with Cisplatin ([…], MW=300), a well-known chemotherapeutic drug, at 8 and 4 μM were also conducted.
(§5) The methodology was the same as the one employed for Example 1 above.

In another data set the test system is Jurkat. Particulars: Example 2, FIG. 3, down to dilution 1:256 (18 and 3.64 μM silver and iron). On the procedure: as §3, §4, §5
In the next data set the test system is T-47D. Particulars: Example 2, FIG. 3, down to dilution 1:256 (18 and 3.64 μM silver and iron). On the procedure: as §3, §4, §5
Data set [3] deals with BHL-89 (Human B-type EBNA negative lymphoma). Particulars: Example 2, FIG. 3, down to dilution 1:256 (18 and 3.64 μM silver and iron). On the procedure:
as §3, §4, §5

The test system of data set [4] is Vero (Simian Kidney Immortalized Cell Line). As to the kind of experiment: Cytotoxic effect, Trypan Blue viable cell count after 72 hrs. The class given is cell-based. On the procedure:
as §3, §4

Where [5] appears, read: S. aureus (ATCC 43300), 100% of initial, approx. 24 hours, 37°C.
The mark [6] stands for this setting: 100% of initial, approx. 24 hours, 37°C.

For `Cc1onc(-c2ccccc2)c1C(=O)N[C@@H]1C(=O)N2[C@@H]1SC(C)(C)[C@@H]2C(=O)O` [OXA, Oxacillin], the “growth in MIC tube” value is listed as “NG” in data set [1] (setting [5]); “+” in data set [1] (S. aureus, 0.195% of initial); “+” in data set [1] (S. aureus, 0.391% of initial); “NG” in data set [1] (S. aureus, 0.781% of initial); “NG” in data set [1] (S. aureus, 1.562% of initial); “NG” in data set [1] (S. aureus, 3.125% of initial). Moreover, the “growth in MIC tube” value in data set [1] (S. aureus, 6.25% of initial) is reported as “NG”; in data set [1] (S. aureus, 12.5% of initial), “NG”; in data set [1] (S. aureus, 25% of initial), “NG”; in data set [1] (S. aureus, 50% of initial), “NG”; in data set [2] (0.195% of initial) it was “+”; in data set [2] (0.391% of initial), “+”. Moreover, the “growth in MIC tube” value in data set [2] (0.781% of initial), in data set [2] (1.562% of initial), in data set [2] (3.125% of initial), in data set [2] (6.25% of initial), in data set [2] (12.5% of initial) and in data set [2] (25% of initial) was “+” throughout. Also, the “growth in MIC tube” value in data set [2] (50% of initial) and in data set [2] (setting [6]) was “+” in each case. The MIC in data set [1] (Staphylococcus aureus, ATCC43300, S. aureus, read-out: MIC) is 1.56 µg/mL; in data set [2], “NE”.

As for Gentamicin, the “growth in MIC tube” value in data set [1] (setting [5]) was “NG”; in data set [1] (S. aureus, 0.195% of initial), “NG”; in data set [1] (S. aureus, 0.391% of initial), “NG”; in data set [1] (S. aureus, 0.781% of initial), “NG”; in data set [1] (S. aureus, 1.562% of initial) it was “NG”; in data set [1] (S. aureus, 3.125% of initial) it was “NG”. The “growth in MIC tube” value was “NG” in data set [1] (S. aureus, 6.25% of initial); “NG” in data set [1] (S. aureus, 12.5% of initial); “NG” in data set [1] (S. aureus, 25% of initial); “NG” in data set [1] (S. aureus, 50% of initial); “+” in data set [2] (0.195% of initial); “+” in data set [2] (0.391% of initial). In addition, the “growth in MIC tube” value in data set [2] (0.781% of initial), in data set [2] (1.562% of initial), in data set [2] (3.125% of initial), in data set [2] (6.25% of initial), in data set [2] (12.5% of initial) and in data set [2] (25% of initial) was “+” each time. The “growth in MIC tube” value in data set [2] (50% of initial) and in data set [2] (setting [6]) was “+” in each case. The MIC in data set [1] (S. aureus) is on record as 0.391 ppm; in data set [2], “NE”.

With `O=P1(N(CCCl)CCCl)NCCCO1` (stereo not shown) [cyclophosphamide], the “cytotoxic effect (in words)” value with MCF-7 (Example 2, FIG. 3, down to dilution 1:256 (18 and 3.64 μM silver and iron)) was “minimum effects”; in the data set on Jurkat, “minimum effects”; in the data set with T-47D it was “does not have any effects”; in data set [3], “does not have any effects”.

For the molecule `OO` [50 mM H2O2, hydrogen peroxide], the “growth in MIC tube” value in data set [1] (setting [5]) is given as “+”; in data set [1] (S. aureus, 0.195% of initial), “+”; in data set [1] (S. aureus, 0.391% of initial), “+”; in data set [1] (S. aureus, 0.781% of initial), “+”; in data set [1] (S. aureus, 1.562% of initial), “+”; in data set [1] (S. aureus, 3.125% of initial), “+”. In addition, the “growth in MIC tube” value in data set [1] (S. aureus, 6.25% of initial) is on record as “+”; in data set [1] (S. aureus, 12.5% of initial), “+”; in data set [1] (S. aureus, 25% of initial), “+”; in data set [1] (S. aureus, 50% of initial) it was “+”; in data set [2] (0.195% of initial), “+”; in data set [2] (0.391% of initial), “+”. For the same molecule, the “growth in MIC tube” value in data set [2] (0.781% of initial) was “+”; in data set [2] (1.562% of initial), “+”; in data set [2] (3.125% of initial), “+”; in data set [2] (6.25% of initial) it was “+”; in data set [2] (12.5% of initial), “+”; in data set [2] (25% of initial), “NG”. The “growth in MIC tube” value in data set [2] (50% of initial) and in data set [2] (setting [6]) was “NG” in each case.

Turning to `N.N.[Cl][Pt][Cl]` [Cisplatin], the “% Inhibition” value is recorded as 72% in the data set with MCF-7 (4 μM); 90% with MCF-7 (8 μM); “no effect” in data set [4] (4 μM); −7% in data set [4] (4 μM, listed as CIS PLA); 61% in data set [4] (8 μM).

The % Inhibition is the relative decrease from the control value, in per cent.

(Values after patent US8673366B2, “Chemotherapeutic and prophylactic pharmaceutical compositions” (priority 2004, dated 2014).)
